Data: patent publication US9562044B2, “2-acylaminothiazole derivative or salt thereof” (ASTELLAS PHARMA INC., priority 2013, dated 2017)
Where a name gives a salt, the structure may show the parent alone.

Key:
human c-Mpl receptor = molecular target: T1, human c-Mpl receptor (Homo sapiens, UniProt P40238); assay: Human c-Mpl-introduced Ba/F3 cell proliferative activity; type: cell-based; conditions: concentration showing 30% proliferation; 100% = positive control at 1 μM
T1 construct: expressed in transfected cells
T1 sequence (P40238 26-635): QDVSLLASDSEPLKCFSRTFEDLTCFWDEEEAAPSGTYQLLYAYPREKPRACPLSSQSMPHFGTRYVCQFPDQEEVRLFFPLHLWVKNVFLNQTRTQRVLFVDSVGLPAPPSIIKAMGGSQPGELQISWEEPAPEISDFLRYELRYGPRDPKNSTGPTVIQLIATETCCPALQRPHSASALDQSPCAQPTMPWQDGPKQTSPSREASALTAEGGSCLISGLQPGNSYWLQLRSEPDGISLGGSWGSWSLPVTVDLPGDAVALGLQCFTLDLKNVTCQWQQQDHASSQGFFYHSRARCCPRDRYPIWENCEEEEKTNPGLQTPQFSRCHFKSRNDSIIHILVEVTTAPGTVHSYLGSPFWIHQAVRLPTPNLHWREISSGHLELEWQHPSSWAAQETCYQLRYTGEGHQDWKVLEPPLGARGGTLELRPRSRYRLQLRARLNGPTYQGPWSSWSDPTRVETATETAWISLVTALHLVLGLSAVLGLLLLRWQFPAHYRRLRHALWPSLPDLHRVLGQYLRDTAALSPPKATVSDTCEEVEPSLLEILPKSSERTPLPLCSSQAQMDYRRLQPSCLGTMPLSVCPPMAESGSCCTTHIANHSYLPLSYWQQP
Procedure: Evaluation of Human c-Mpl-Introduced Ba/F3 Cell Proliferative Activity
The human c-Mpl-introduced Ba/F3 cell proliferative activity was measured by the following method.
As a positive control, 1-(5-{[4-(4-chloro-2-thienyl)-5-{[(2R)-2-methylpyrrolidin-1-yl]methyl}-1,3-thiazol-2-yl]carbamoyl}-3-fluoropyridin-2-yl)piperidine-4-carboxylic acid hydrochloride, which is disclosed as Example 315 in Patent Document 1 and represented by the formula A1, was used. It is known that the compound has a good human c-Mpl-introduced Ba/F3 cell proliferative activity as disclosed in Table 1 of Patent Document 1.
a) Construction of Human c-Mpl Receptor Expression Vector
A human c-mpl receptor gene (GenBank Accession No. M90102.1) was introduced into an expression vector pEF-BOS (Nucleic Acids Res. 18, 5322, 1990).
b) Construction of Cell Stably Expressing Human c-Mpl Receptor
A human c-Mpl receptor expression vector was introduced into a Ba/F3 cell (RIKEN BRC: RCB0805). For the introduction, an electroporation method was used. pEF-BOS-c-mpl (10 μg), pSV2bsr (1 μg, Kaken Pharmaceutical Co., Ltd.) and 1×10^7 Ba/F3 cells were put into a cuvette having a gap width of 0.4 cm, and electroporated under the conditions of 1.5 kV (25 μF) by a Gene Pulser (registered trademark) (BioRad). The cells were cultured in an RPMI-1640 culture medium containing 0.5% WEHI conditioned media (BD Biosciences) and 10% fetal bovine serum for 3 days, and then cultured in an RPMI-1640 culture medium, to which 10 μg/mL blasticidin had been further added, for 30 days to acquire a drug-resistant clone.
c) Measurement of Cell Proliferative Activity
The cells obtained in b) above was cultured in an RPMI-1640 culture medium containing 0.5% WEHI conditioned media, 10% fetal bovine serum, and used. On the day before the experiment, test substances (final concentration of 100 nM to 10 μM) which had been dissolved in a culture medium for assay (RPMI-1640 culture medium containing 10% fetal bovine serum) were added to a 384-well plate (Lot No. 781185, Greiner Bio-One). The cells in the culture medium that had been replaced with a culture medium for assay were dispensed into a 384-well plate, to which the test substances had been added in advance, to 1×10^4 cells/well, and cultured at 37° C. and 5% CO2 overnight. On the experiment day, a solution of a Cell Counting Kit (Dojindo Laboratories) was added to each well of the 384-well plate and cultured at 37° C. and 5% CO2 for about 5 hours. Thereafter, the absorbance (absorption wavelength of 450 nm) of each well was measured using Safire^2™ (TECAN) and used as the index of the number of cells. Further, as a negative control, a well in which the test substance had been not added was prepared.
The absorbance of the well without the test substance was set to 0%, and the absorbance in the case where the positive control was added at a final concentration of 1 μM was set to 100%. From the absorbance in the case where the test substance had been added, a cell proliferation rate (%) was calculated. From the obtained results, the test substance concentration showing 30% proliferation was calculated as an EC30 value by a logistic regression method.

isolated rat bladder = assay: Transmural electrical field stimulation-induced contraction of isolated rat bladder; conditions: AUC of contractile response, value before treatment = 100%, SD female rat bladder strip, read-out: Enhancement rate of isolated bladder contraction (% of pre)
Procedure: Effects on Transmural Electrical Field Stimulation-Induced Contraction of Isolated Rat Bladder
As an effect on the nerve stimulation-dependent bladder contraction in vitro, the effect of the Example compound of the present invention in the transmural electrical field stimulation-induced contraction of isolated rat bladder was measured by the following method. That is, from the bladder isolated from a Spraque-Dawley (SD) female rat (Japan SLC, Inc.), a longitudinal bladder strip having a width of about 2 mm and a length of about 10 mm was prepared. The prepared bladder strip was suspended in an organ bath filled with 10 mL of a Krebs-Henseleit solution. The Krebs-Henseleit solution was bubbled with 95% O2 and 5% CO2, and kept at 37° C. After stabilization at an initial tension of 1 g, contraction was induced twice with 60 mM KCl. The strip was washed with the Krebs-Henseleit solution and stabilized, and then contraction was induced with transmural electrical field stimulation at 20 V (stimulation frequency of 8 Hz, pulse width of 0.3 msec, and stimulation time of 10 seconds) by an electrical stimulation device (Nihon Kohden Corporation). At an interval of 2 minutes, transmural electrical field stimulation was repeated and the voltage was adjusted to make the contractile amplitude about 50% of the contractile response by 20 V. After stabilization of the contraction by the transmural electrical field stimulation, 10 μL of the test substance (final concentrations of 3 μM, 10 μM, and 30 μM), which had been dissolved in 100% dimethylsulfoxide in advance was added. The test substance was cumulatively administered at the next concentration after the contractile response at a lower concentration had been stabilized. The responses were put into a personal computer through PowerLab (registered trademark) (AD Instruments), and analyzed with LabChart (registered trademark) (AD Instruments). The area under the response of each contractile response (area under curve, AUC) was calculated and the value before the treatment with the test substance was set to 100%. Based on this, the enhancement rate of the isolated bladder contraction (% of pre) after the treatment with the test substance was calculated.
The enhancement rates of the isolated bladder contraction due to several 10 μM Example compounds which are the compounds of the formula (I) are shown in Table 2.

Row | Test Example 2 EC30 (human c-Mpl receptor) [µM] | Structure (SMILES) | activity at 10 µM (isolated rat bladder) [%]
1 | >10 | CCCOc1ccc(-c2nc(NC(=O)c3cnc(N4CCC(C(=O)O)CC4)cn3)sc2CN2CCC[C@H]2CC)cc1C(F)(F)F [Example 1, 1-{5-[(5-{[(2R)-2-ethylpyrrolidin-1-yl]methyl}-4-[4-propoxy-3-(trifluoromethyl)phenyl]-1,3-thiazol-2-yl)carbamoyl]pyrazin-2-yl}piperidine-4-carboxylic acid dihydrochloride] | 132
2 | >10 | COc1cc(-c2nc(NC(=O)c3cnc(N4CCC(C(=O)O)CC4)cn3)sc2CN2CCCC[C@H]2C)cc(C(F)(F)F)c1 [Example 2, 1-{5-[(4-[3-methoxy-5-(trifluoromethyl)phenyl]-5-{[(2R)-2-methylpiperidin-1-yl]methyl}-1,3-thiazol-2-yl)carbamoyl]pyrazin-2-yl}piperidine-4-carboxylic acid dihydrochloride] | 
3 | 4.8 | Cc1cc(OC(F)(F)F)cc(-c2nc(NC(=O)c3cnc(N4CCC(F)(C(=O)O)CC4)cn3)sc2CN2CCC[C@H]2C)c1 [Example 3, 4-fluoro-1-{5-[(5-{[(2R)-2-methylpyrrolidin-1-yl]methyl}-4-[3-methyl-5-(trifluoromethoxy)phenyl]-1,3-thiazol-2-yl)carbamoyl]pyrazin-2-yl}piperidine-4-carboxylic acid dihydrochloride] | 
4 | >10 | C[C@@H]1CCCN1Cc1sc(NC(=O)c2cnc(N3CCC(C(=O)O)CC3)cn2)nc1-c1ccc(N(C)C)c(C(F)(F)F)c1 [Example 11] | 
5 | >10 | CCOC[C@@H]1CCCN1Cc1sc(NC(=O)c2cnc(N3CCC(C(=O)O)CC3)cn2)nc1-c1cc(F)c(OC)c(C(F)(F)F)c1 [Example 84] | 140
6 | >10 | COc1c(Cl)cc(-c2nc(NC(=O)c3cnc(N4CCC(C(=O)O)CC4)cn3)sc2CN2CCC[C@H]2C)cc1Cl [Example 92] | 132
7 | >10 | CC[C@@H]1CCCN1Cc1sc(NC(=O)c2cnc(N3CCC(F)(C(=O)O)CC3)cn2)nc1-c1ccc(OC)c(C(F)(F)F)c1 [Example 125] | 
8 | 8.4 | C[C@@H]1CCCN1Cc1sc(NC(=O)c2cnc(N3CCC(F)(C(=O)O)CC3)cn2)nc1-c1cc(F)cc(C(F)(F)F)c1 [Example 128] | 
9 | 0.77 | C[C@@H]1CCCN1Cc1sc(NC(=O)c2cnc(N3CCC(O)(C(=O)O)CC3)cn2)nc1-c1cc(Cl)cs1 [Example 129] | 
10 | 1.1 | C[C@@H]1CCCN1Cc1sc(NC(=O)c2cnc(N3CCC(F)(C(=O)O)CC3)cn2)nc1-c1ccc(F)c(C(F)(F)F)c1 [Example 133] | 
11 | >10 | C[C@@H]1CCCN1Cc1sc(NC(=O)c2cnc(N3CCC(C(=O)O)CC3)cn2)nc1-c1cc(F)cc(C(F)(F)F)c1 [Example 150] | 
12 | >10 | CCCC1CCCN1Cc1sc(NC(=O)c2cnc(N3CCC(C(=O)O)CC3)cn2)nc1-c1ccc(OC)c(C(F)(F)F)c1 (stereo not drawn) [Example 158] | 125
13 | >10 | CCOc1ccc(-c2nc(NC(=O)c3cnc(N4CCC(C(=O)O)CC4)cn3)sc2CN2CCC[C@H]2C)cc1C(F)(F)F [Example 200] | 
14 | >10 | CCOc1ccc(-c2nc(NC(=O)c3cnc(N4CCC(C(=O)O)CC4)cn3)sc2CN2CCC[C@H]2CC)cc1C(F)(F)F [Example 203] | 

Second part, the molecule before the results:

Row | Structure (SMILES) | Test Example 2 EC30 (human c-Mpl receptor) [µM] | activity at 10 µM (isolated rat bladder) [%]
15 | CCCC1CCCN1Cc1sc(NC(=O)c2cnc(N3CCC(C(=O)O)CC3)cn2)nc1-c1ccc(OC(C)C)c(C(F)(F)F)c1 (stereo not drawn) [Example 19] | >10 | 124
16 | CC(C)Oc1ccc(-c2nc(NC(=O)c3cnc(N4CCC(C(=O)O)CC4)cn3)sc2CN2CCCC(C)(C)C2)cc1C(F)(F)F [Example 20] | >10 | 
17 | CC[C@@H]1CCCN1Cc1sc(NC(=O)c2cnc(N3CCC(C(=O)O)CC3)cn2)nc1-c1ccc(OCCCOC)c(C(F)(F)F)c1 [Example 21] | >10 | 
18 | CCCOc1ccc(-c2nc(NC(=O)c3cnc(N4CCC(C(=O)O)CC4)cn3)sc2CN2CCCC(C)(C)C2)cc1C(F)(F)F [Example 27] | >10 | 
19 | COCCN(Cc1sc(NC(=O)c2cnc(N3CCC(C(=O)O)CC3)cn2)nc1-c1cc(C(F)(F)F)cc(C(F)(F)F)c1)CC(C)C [Example 38] | >10 | 
20 | CCOC[C@@H]1CCCN1Cc1sc(NC(=O)c2cnc(N3CCC(C(=O)O)CC3)cn2)nc1-c1cc(F)c(OC)c(Cl)c1 [Example 69] | >10 | 152
21 | C[C@@H]1CCCCN1Cc1sc(NC(=O)c2cnc(N3CCC(C(=O)O)CC3)cn2)nc1-c1cc(Cl)cs1 [Example 142] | 0.38 | 
22 | CCCN(CCOC)Cc1sc(NC(=O)c2cnc(N3CCC(C(=O)O)CC3)cn2)nc1-c1cc(Cl)cs1 [Example 146] | 0.82 | 
23 | COCCN(Cc1sc(NC(=O)c2cnc(N3CCC(C(=O)O)CC3)cn2)nc1-c1cc(Cl)cs1)CC(C)C [Example 152] | 0.58 | 
24 | COc1ccc(-c2nc(NC(=O)c3cnc(N4CCC(C(=O)O)CC4)cn3)sc2CN2CCC[C@H]2C(F)(F)F)cc1C(F)(F)F [Example 179] | >10 | 120
25 | CC[C@@H]1CCCN1Cc1sc(NC(=O)c2cnc(N3CCC(C(=O)O)CC3)cn2)nc1-c1cc(Cl)cs1 [Example 196] |  | 125
26 | O=C(Nc1nc(-c2ccc(OCCCF)c(C(F)(F)F)c2)c(CN2CCC[C@H]2C(F)(F)F)s1)c1cnc(N2CCC(C(=O)O)CC2)cn1 [Example 204] | >10 | 
